Reference: the supplement of paper PMC10307832

Tests used:
Experiment in all cases: relative viability (nuclei count vs DMSO), 5 days (fraction); higher = more cells survive
[1] = compound: COc1ccc(-c2ccc3c(N4CCOC[C@@H]4C)nc(N4CCOC[C@@H]4C)nc3n2)cc1CO [AZD8055] + CS(=O)(=O)N1CCN(Cc2cc3nc(-c4cccc5[nH]ncc45)nc(N4CCOCC4)c3s2)CC1 [Pictilisib] (partner 1 µM)
In short: (§1)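 Lung cancer cell lines in 1536-well plates got either a single drug or a fixed anchor-drug dose together with five library-drug doses (not always all listed) in √10 steps, by pin tool, on the day after seeding. Nuclei were counted after 5 days, and relative viability is the treated-to-vehicle ratio of nuclei counts. Values are medians of duplicate plates.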

[2] = compound: COc1ccc(-c2ccc3c(N4CCOC[C@@H]4C)nc(N4CCOC[C@@H]4C)nc3n2)cc1CO [AZD8055] + CC1(C)CCC(c2ccc(Cl)cc2)=C(CN2CCN(c3ccc(C(=O)NS(=O)(=O)c4ccc(N[C@H](CCN5CCOCC5)CSc5ccccc5)c(S(=O)(=O)C(F)(F)F)c4)cc3)CC2)C1 [Navitoclax] (partner 0.5 µM)
In short: as §1

[3] = compound: COc1ccc(-c2ccc3c(N4CCOC[C@@H]4C)nc(N4CCOC[C@@H]4C)nc3n2)cc1CO [AZD8055] + CC(C)C[C@H](NC(=O)[C@H](Cc1ccccc1)NC(=O)c1cnccn1)B(O)O [Bortezomib] (partner 0.002 µM)
In short: as §1

[4] = compound: COc1ccc(-c2ccc3c(N4CCOC[C@@H]4C)nc(N4CCOC[C@@H]4C)nc3n2)cc1CO [AZD8055] + C[C@]1(O)C[C@@H](c2nc(-c3ccc4ccc(-c5ccccc5)nc4c3)c3c(N)nccn32)C1 [Linsitinib] (partner 1 µM)
In short: as §1

[5] = compound: COc1ccc(-c2ccc3c(N4CCOC[C@@H]4C)nc(N4CCOC[C@@H]4C)nc3n2)cc1CO [AZD8055] + O=C(c1cc(Cc2n[nH]c(=O)c3ccccc23)ccc1F)N1CCN(C(=O)C2CC2)CC1 [Olaparib] (partner 8 µM)
In short: as §1

[6] = compound: COc1ccc(-c2ccc3c(N4CCOC[C@@H]4C)nc(N4CCOC[C@@H]4C)nc3n2)cc1CO [AZD8055] + C[C@@H](Oc1cc(-c2cnn(C3CCNCC3)c2)cnc1N)c1c(Cl)ccc(F)c1Cl [Crizotinib] (partner 1 µM)
In short: as §1

[7] = compound: COc1ccc(-c2ccc3c(N4CCOC[C@@H]4C)nc(N4CCOC[C@@H]4C)nc3n2)cc1CO [AZD8055] + COc1cc2c(Oc3ccc(NC(=O)C4(C(=O)Nc5ccc(F)cc5)CC4)cc3F)ccnc2cc1OCCCN1CCOCC1 [Foretinib] (partner 0.25 µM)
In short: as §1

[8] = compound: COc1ccc(-c2ccc3c(N4CCOC[C@@H]4C)nc(N4CCOC[C@@H]4C)nc3n2)cc1CO [AZD8055] + Cc1nc(NC(=O)N2CCC[C@H]2C(N)=O)sc1-c1ccnc(C(C)(C)C(F)(F)F)c1 [Alpelisib] (partner 2 µM)
In short: as §1

[9] = compound: COc1ccc(-c2ccc3c(N4CCOC[C@@H]4C)nc(N4CCOC[C@@H]4C)nc3n2)cc1CO [AZD8055] + CS(=O)(=O)CCNCc1ccc(-c2ccc3ncnc(Nc4ccc(OCc5cccc(F)c5)c(Cl)c4)c3c2)o1 [Lapatinib] (partner 2 µM)
In short: as §1

[10] = compound: COc1ccc(-c2ccc3c(N4CCOC[C@@H]4C)nc(N4CCOC[C@@H]4C)nc3n2)cc1CO [AZD8055]
In short: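 A plate was accepted only when its control CV was below 25% and the cells had doubled at least once. Viability is defined from nuclear counts as treated wells divided by vehicle wells, with the median taken across plates. That median covers lung cancer cell lines grown in 1536-well plates, dosed by pinning at five √10-spaced library-drug concentrations, and counted in MetaXpress from 4× Hoechst images after 5 days.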

[11] = compound: COc1ccc(-c2ccc3c(N4CCOC[C@@H]4C)nc(N4CCOC[C@@H]4C)nc3n2)cc1CO [AZD8055] + N=C(N)NC(=N)NCCc1ccccc1 [Phenformin] (partner 250 µM)
In short: as §1

[12] = compound: COc1ccc(-c2ccc3c(N4CCOC[C@@H]4C)nc(N4CCOC[C@@H]4C)nc3n2)cc1CO [AZD8055] + Cc1nc(Nc2ncc(C(=O)Nc3c(C)cccc3Cl)s2)cc(N2CCN(CCO)CC2)n1 [Dasatinib] (partner 0.075 µM)
In short: as §1

[13] = compound: COc1ccc(-c2ccc3c(N4CCOC[C@@H]4C)nc(N4CCOC[C@@H]4C)nc3n2)cc1CO [AZD8055] + Cc1cc(Nc2cc(N3CCN(C)CC3)nc(Sc3ccc(NC(=O)C4CC4)cc3)n2)n[nH]1 [Tozasertib] (partner 0.1 µM)
In short: as §1

[14] = compound: COc1ccc(-c2ccc3c(N4CCOC[C@@H]4C)nc(N4CCOC[C@@H]4C)nc3n2)cc1CO [AZD8055] + COc1cccc2cc(-c3nc([C@H]4CC[C@H](C(=O)O)CC4)n4ncnc(N)c34)[nH]c12 [OSI-027] (partner 0.5 µM)
In short: as §1

[15] = compound: COc1ccc(-c2ccc3c(N4CCOC[C@@H]4C)nc(N4CCOC[C@@H]4C)nc3n2)cc1CO [AZD8055] + CCNC(=O)c1noc(-c2cc(C(C)C)c(O)cc2O)c1-c1ccc(CN2CCOCC2)cc1 [Luminespib] (partner 0.01 µM)
In short: as §1

Q: For EBC-1, which relative viability ([1]; first compound 0.01 µM) is on record?
A: 0.303

Q: And the relative viability ([1]; first compound 0.03162 µM)?
A: 0.266

Q: What about the relative viability ([1]; first compound 0.1 µM) of the same cell line?
A: 0.206

Q: And the relative viability ([1]; first compound 0.3162 µM)?
A: 0.197

Q: What about the relative viability ([1]; first compound 1 µM) of the same cell line?
A: 0.19

Q: And the relative viability ([2]; first compound 0.01 µM)?
A: 0.312

Q: What about the relative viability ([2]; first compound 0.03162 µM) of the same cell line?
A: 0.187

Q: And the relative viability ([2]; first compound 0.1 µM)?
A: 0.213

Q: And the relative viability ([2]; first compound 0.3162 µM)?
A: 0.182

Q: And the relative viability ([2]; first compound 1 µM)?
A: 0.205

Q: What about the relative viability ([3]; first compound 0.01 µM) of the same cell line?
A: 0.485

Q: And the relative viability ([3]; first compound 0.03162 µM)?
A: 0.502

Q: What about the relative viability ([3]; first compound 0.1 µM) of the same cell line?
A: 0.301

Q: What about the relative viability ([3]; first compound 0.3162 µM) of the same cell line?
A: 0.236

Q: And the relative viability ([3]; first compound 1 µM)?
A: 0.224

Q: What about the relative viability ([4]; first compound 0.01 µM) of the same cell line?
A: 1.06

Q: What about the relative viability ([4]; first compound 0.03162 µM) of the same cell line?
A: 0.724

Q: And the relative viability ([4]; first compound 0.1 µM)?
A: 0.437

Q: What about the relative viability ([4]; first compound 0.3162 µM) of the same cell line?
A: 0.235

Q: And the relative viability ([4]; first compound 1 µM)?
A: 0.16

Q: And the relative viability ([5]; first compound 0.01 µM)?
A: 0.764

Q: And the relative viability ([5]; first compound 0.03162 µM)?
A: 0.51

Q: What about the relative viability ([5]; first compound 0.1 µM) of the same cell line?
A: 0.331

Q: What about the relative viability ([5]; first compound 0.3162 µM) of the same cell line?
A: 0.227

Q: And the relative viability ([5]; first compound 1 µM)?
A: 0.172

Q: And the relative viability ([6]; first compound 0.01 µM)?
A: 0.155

Q: And the relative viability ([6]; first compound 0.03162 µM)?
A: 0.204

Q: What about the relative viability ([6]; first compound 0.1 µM) of the same cell line?
A: 0.197

Q: And the relative viability ([6]; first compound 0.3162 µM)?
A: 0.221

Q: What about the relative viability ([6]; first compound 1 µM) of the same cell line?
A: 0.219

Q: What about the relative viability ([7]; first compound 0.01 µM) of the same cell line?
A: 0.102

Q: And the relative viability ([7]; first compound 0.03162 µM)?
A: 0.126

Q: What about the relative viability ([7]; first compound 0.1 µM) of the same cell line?
A: 0.116

Q: What about the relative viability ([7]; first compound 0.3162 µM) of the same cell line?
A: 0.114

Q: And the relative viability ([7]; first compound 1 µM)?
A: 0.127

Q: And the relative viability ([8]; first compound 0.01 µM)?
A: 0.827

Q: What about the relative viability ([8]; first compound 0.03162 µM) of the same cell line?
A: 0.421

Q: What about the relative viability ([8]; first compound 0.1 µM) of the same cell line?
A: 0.373

Q: What about the relative viability ([8]; first compound 0.3162 µM) of the same cell line?
A: 0.265

Q: What about the relative viability ([8]; first compound 1 µM) of the same cell line?
A: 0.259

Q: And the relative viability ([9]; first compound 0.01 µM)?
A: 0.214

Q: And the relative viability ([9]; first compound 0.03162 µM)?
A: 0.213

Q: What about the relative viability ([9]; first compound 0.1 µM) of the same cell line?
A: 0.219

Q: And the relative viability ([9]; first compound 0.3162 µM)?
A: 0.231

Q: And the relative viability ([9]; first compound 1 µM)?
A: 0.199

Q: What about the relative viability ([10]; 0.01 µM) of the same cell line?
A: 1.11

Q: And the relative viability ([10]; 0.03162 µM)?
A: 0.828

Q: What about the relative viability ([10]; 0.1 µM) of the same cell line?
A: 0.609

Q: What about the relative viability ([10]; 0.3162 µM) of the same cell line?
A: 0.244

Q: And the relative viability ([10]; 1 µM)?
A: 0.205

Q: For NCI-H1623, which relative viability ([11]; first compound 0.01 µM) is on record?
A: 0.586

Q: What about the relative viability ([11]; first compound 0.03162 µM) of the same cell line?
A: 0.597

Q: What about the relative viability ([11]; first compound 0.1 µM) of the same cell line?
A: 0.521

Q: And the relative viability ([11]; first compound 0.3162 µM)?
A: 0.324

Q: What about the relative viability ([11]; first compound 1 µM) of the same cell line?
A: 0.316

Q: And the relative viability ([12]; first compound 0.01 µM)?
A: 0.545

Q: And the relative viability ([12]; first compound 0.03162 µM)?
A: 0.584

Q: And the relative viability ([12]; first compound 0.1 µM)?
A: 0.412

Q: What about the relative viability ([12]; first compound 0.3162 µM) of the same cell line?
A: 0.29

Q: And the relative viability ([12]; first compound 1 µM)?
A: 0.234

Q: And the relative viability ([13]; first compound 0.01 µM)?
A: 0.46

Q: What about the relative viability ([13]; first compound 0.03162 µM) of the same cell line?
A: 0.47

Q: And the relative viability ([13]; first compound 0.1 µM)?
A: 0.397

Q: And the relative viability ([13]; first compound 0.3162 µM)?
A: 0.254

Q: And the relative viability ([13]; first compound 1 µM)?
A: 0.288

Q: And the relative viability ([7]; first compound 0.01 µM)?
A: 0.885

Q: What about the relative viability ([7]; first compound 0.03162 µM) of the same cell line?
A: 1.03

Q: What about the relative viability ([7]; first compound 0.1 µM) of the same cell line?
A: 0.578

Q: And the relative viability ([7]; first compound 0.3162 µM)?
A: 0.438

Q: What about the relative viability ([7]; first compound 1 µM) of the same cell line?
A: 0.381

Q: And the relative viability ([14]; first compound 0.01 µM)?
A: 0.419

Q: And the relative viability ([14]; first compound 0.03162 µM)?
A: 0.521

Q: And the relative viability ([14]; first compound 0.1 µM)?
A: 0.425

Q: What about the relative viability ([14]; first compound 0.3162 µM) of the same cell line?
A: 0.411

Q: What about the relative viability ([14]; first compound 1 µM) of the same cell line?
A: 0.379

Q: And the relative viability ([15]; first compound 0.01 µM)?
A: 0.483

Q: What about the relative viability ([15]; first compound 0.03162 µM) of the same cell line?
A: 0.434

Q: What about the relative viability ([15]; first compound 0.1 µM) of the same cell line?
A: 0.343

Q: And the relative viability ([15]; first compound 0.3162 µM)?
A: 0.347

Q: And the relative viability ([15]; first compound 1 µM)?
A: 0.278

Q: What about the relative viability ([10]; 0.01 µM) of the same cell line?
A: 0.916

Q: And the relative viability ([10]; 0.03162 µM)?
A: 1.03

Q: And the relative viability ([10]; 0.1 µM)?
A: 0.79

Q: And the relative viability ([10]; 0.3162 µM)?
A: 0.469

Q: And the relative viability ([10]; 1 µM)?
A: 0.36
